Measurements published in patent US7355042B2, “Treatment of CNS disorders using CNS target modulators” (Hypnion, Inc., priority 2001, dated 2008).
Where “and” joins values, the source holds several entries; their conditions need not be identical. Equal entries are not always repeated. Where two headings read alike, the source gives them in different places.

How the values were obtained:
[1] = molecular target: T1, H1 receptor from bovine cellular membranes (Bos taurus, UniProt P30546); test: H1 binding assay, [3H]pyrilamine displacement; conditions: for IC50: Table 6, Series 11, unit inferred
T1 construct: the H1 receptor was from bovine cellular membranes; from tissue

male Wistar rats = test: Sleep-wakefulness, locomotor activity and body temperature monitoring (SCORE-2000); format: in vivo, rat; conditions: for total sleep time post-treatment: 10 mg/kg PO at CT-18, versus methylcellulose vehicle; for net longest sleep bout post treatment: adjusted using a baseline value at least 24 hours prior; for average sleep bout: at absolute peak; for nonREM peak time value: by the third hour after administration; for cumulative total increase in nonREM sleep: doses that produce maximum sleep consolidation; for body temperature adverse effects / disproportional locomotor inhibition: rats
[2] = molecular target: T2, human recombinant M1 muscarinic receptor expressed in CHO cells (Homo sapiens, UniProt P11229); test: M1 binding assay (human recombinant), [3H]-scopolamine N-methyl chloride
T2 construct: expressed in transfected cells; host or cells: CHO cells
T2 sequence (P11229 1-460): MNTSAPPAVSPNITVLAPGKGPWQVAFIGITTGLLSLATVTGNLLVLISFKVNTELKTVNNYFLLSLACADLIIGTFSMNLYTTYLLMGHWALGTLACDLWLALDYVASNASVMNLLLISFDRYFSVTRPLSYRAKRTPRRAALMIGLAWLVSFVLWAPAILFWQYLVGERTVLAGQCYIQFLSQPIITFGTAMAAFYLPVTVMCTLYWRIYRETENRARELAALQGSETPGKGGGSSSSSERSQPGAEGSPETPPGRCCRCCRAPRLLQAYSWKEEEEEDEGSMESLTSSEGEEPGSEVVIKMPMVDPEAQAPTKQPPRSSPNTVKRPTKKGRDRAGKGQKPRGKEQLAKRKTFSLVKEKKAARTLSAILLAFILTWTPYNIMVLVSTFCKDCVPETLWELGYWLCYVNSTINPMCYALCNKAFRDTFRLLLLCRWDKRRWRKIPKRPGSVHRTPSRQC

[3] = molecular target: T3, human recombinant M2 muscarinic receptor expressed in CHO cells (Homo sapiens, UniProt P08172); test: M2 binding assay (human recombinant); conditions: Examples 15-17; unit inferred; read-out: binding affinity for cholinergic (muscarinic) receptor M2
T3 construct: expressed in transfected cells; host or cells: CHO cells
T3 sequence (P08172 1-466): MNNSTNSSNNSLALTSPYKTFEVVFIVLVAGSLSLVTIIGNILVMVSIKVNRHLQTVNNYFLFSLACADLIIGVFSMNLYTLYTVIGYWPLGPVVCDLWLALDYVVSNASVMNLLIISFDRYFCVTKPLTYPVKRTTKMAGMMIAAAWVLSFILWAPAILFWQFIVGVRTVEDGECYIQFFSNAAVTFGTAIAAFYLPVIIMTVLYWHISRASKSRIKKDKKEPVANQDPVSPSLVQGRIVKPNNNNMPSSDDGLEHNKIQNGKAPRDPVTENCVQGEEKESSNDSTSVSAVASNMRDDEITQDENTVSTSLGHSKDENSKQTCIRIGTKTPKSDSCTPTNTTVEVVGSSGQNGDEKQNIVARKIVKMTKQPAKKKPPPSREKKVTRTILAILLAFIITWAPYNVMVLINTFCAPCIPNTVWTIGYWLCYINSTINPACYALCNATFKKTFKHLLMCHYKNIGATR

[4] = molecular target: T4, human recombinant M3 muscarinic receptor expressed in CHO cells (Homo sapiens, UniProt P20309); test: M3 binding assay (human recombinant)
T4 construct: expressed in transfected cells; host or cells: CHO cells

[5] = Examples 15-17, read-out: Ki, H1 binding assay
[6] = 10 mg/kg PO at CT-18, male Wistar rats
[7] = Examples 15-17, unit inferred, read-out: binding affinity for cholinergic (muscarinic) receptor M1
[8] = Examples 15-17, unit inferred, read-out: binding affinity for cholinergic (muscarinic) receptor M3
[9] = 30 mg/kg and 10 mg/kg, intraperitoneal bolus at CT-18
[10] = intraperitoneal at CT-18, 11f 10 or 30 mg/kg, 6f and 15f 30 mg/kg

T1 sequence (P30546 whole entry): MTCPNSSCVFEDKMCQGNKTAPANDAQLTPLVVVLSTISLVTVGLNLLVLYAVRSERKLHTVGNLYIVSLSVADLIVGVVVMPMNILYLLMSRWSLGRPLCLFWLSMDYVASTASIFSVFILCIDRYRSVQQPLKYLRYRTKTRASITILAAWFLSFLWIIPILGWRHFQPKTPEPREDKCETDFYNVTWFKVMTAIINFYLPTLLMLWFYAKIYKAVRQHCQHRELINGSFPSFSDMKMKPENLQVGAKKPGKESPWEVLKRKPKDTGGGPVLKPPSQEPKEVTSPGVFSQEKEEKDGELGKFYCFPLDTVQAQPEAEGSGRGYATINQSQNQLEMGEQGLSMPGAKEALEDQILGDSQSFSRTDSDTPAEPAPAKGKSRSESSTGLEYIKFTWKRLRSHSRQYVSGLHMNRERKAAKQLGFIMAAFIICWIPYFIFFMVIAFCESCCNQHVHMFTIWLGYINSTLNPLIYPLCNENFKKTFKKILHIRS
T4 sequence (P20309 whole entry): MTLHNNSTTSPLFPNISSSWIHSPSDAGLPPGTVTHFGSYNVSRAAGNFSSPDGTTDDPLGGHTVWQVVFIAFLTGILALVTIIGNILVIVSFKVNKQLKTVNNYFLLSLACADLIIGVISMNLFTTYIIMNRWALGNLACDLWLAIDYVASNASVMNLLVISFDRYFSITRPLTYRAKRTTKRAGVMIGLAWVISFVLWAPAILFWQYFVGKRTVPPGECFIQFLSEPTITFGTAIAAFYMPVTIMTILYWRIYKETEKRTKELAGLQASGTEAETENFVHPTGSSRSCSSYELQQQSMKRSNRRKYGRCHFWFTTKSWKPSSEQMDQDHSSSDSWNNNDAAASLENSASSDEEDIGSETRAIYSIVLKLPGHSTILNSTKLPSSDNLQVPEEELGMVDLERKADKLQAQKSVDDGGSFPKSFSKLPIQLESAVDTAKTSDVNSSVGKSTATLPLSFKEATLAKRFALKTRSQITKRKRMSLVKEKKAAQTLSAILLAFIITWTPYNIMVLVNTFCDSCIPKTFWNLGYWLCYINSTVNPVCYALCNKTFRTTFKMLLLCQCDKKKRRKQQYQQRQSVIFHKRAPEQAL

## Cl.O=C(O)CCN1CCC(=C(c2ccccc2)c2ccccc2)CC1 [Compound U1]
[1]; [5]
  Ki: < 500 nM
Male Wistar rats; [6]
  sleep continuity, as assessed by sleep bout length: increased sleep continuity
Male Wistar rats
  total sleep time post-treatment: significantly increased total sleep time
  body temperature adverse effects: no evidence of causing disproportional locomotor inhibition or body temperature adverse effects
  disproportional locomotor inhibition: no evidence of causing disproportional locomotor inhibition or body temperature adverse effects
Male Wistar rats; functional criteria list
  net longest sleep bout post treatment: greater than or equal to 3 minutes
  average sleep bout: greater than 5 minutes
  nonREM peak time value: greater than 55 % nonREM sleep per hour
  cumulative total increase in nonREM sleep: not less than 20 minutes
  REM sleep inhibition: does not appreciably inhibit REM sleep
  locomotor activity inhibition relative to the normal effects of sleep: does not disproportionately inhibit locomotor activity
  longest sleep bout: greater than 13 minutes
  rebound insomnia: does not produce appreciable amounts of rebound insomnia

## O=C(O)CCN1CCC(OC(c2ccccc2)c2ccccc2)CC1 [Compound 6a, 3-[4-(diphenylmethoxy)piperidin-1-yl]propanoic acid]
Male Wistar rats; 30 mg/kg PO at CT-18
  Average Bout-Length: 7.0 min
  Duration: 5 h
  Maximum Bout Length: 12.8 min
  NREM Accum.: 26.5 min
  NREM Peak (%/hr): 56.4 %/hr
  Onset: 65 min

## O=C(O)CCN1CCC(=C(c2ccccc2)c2ccccc2)CC1 [Compound 11a]
[1]
  IC50: 308 nM
Male Wistar rats; 30 mg/kg PO at CT-18
  Average Bout-Length: 11.2 min
  Duration: 6 h
  Maximum Bout Length: 18.7 min
  NREM Accum.: 41.2 min
  NREM Peak (%/hr): 67.3 %/hr
  Onset: 85 min

## CC(C)(CN1CCC(N2c3ccccc3Sc3ccccc32)CC1)C(=O)O.Cl [Compound UU1]
[1]; [5]
  Ki: < 500 nM and 13.6 nM
[2]; [7]
  Ki: > 10000 nM
[3]
  Ki: > 10000 nM
[4]; [8]
  Ki: > 10000 nM
Male Wistar rats; [6]
  sleep continuity, as assessed by sleep bout length: increased sleep continuity
Male Wistar rats
  total sleep time post-treatment: significantly increased total sleep time
  body temperature adverse effects: no evidence of causing disproportional locomotor inhibition or body temperature adverse effects
  disproportional locomotor inhibition: no evidence of causing disproportional locomotor inhibition or body temperature adverse effects
Male Wistar rats; functional criteria list
  net longest sleep bout post treatment: greater than or equal to 3 minutes
  average sleep bout: greater than 5 minutes
  nonREM peak time value: greater than 55 % nonREM sleep per hour
  cumulative total increase in nonREM sleep: not less than 20 minutes
  REM sleep inhibition: does not appreciably inhibit REM sleep
  locomotor activity inhibition relative to the normal effects of sleep: does not disproportionately inhibit locomotor activity
  longest sleep bout: greater than 13 minutes
  rebound insomnia: does not produce appreciable amounts of rebound insomnia

## Cl.O=C(O)CCCN1CCC(OC(c2ccccc2)c2ccccc2)CC1 [Compound 53a]
Male Wistar rats; 30 mg/kg PO at CT-18
  Average Bout-Length: 4.3 min
  Duration: 4 h
  Maximum Bout Length: 9.1 min
  NREM Accum.: 17.4 min
  NREM Peak (%/hr): 49.2 %/hr
  Onset: 30 min

## CC(C)(CCN1CCN(C2=Nc3ccccc3Oc3ccc(Cl)cc32)CC1)C(=O)O [Compound SS1]
[1]; [5]
  Ki: 23.9 nM
[2]; [7]
  Ki: > 10000 nM
[3]
  Ki: > 10000 nM
[4]; [8]
  Ki: > 10000 nM
Male Wistar rats; [6]
  sleep continuity, as assessed by sleep bout length: increased sleep continuity
Male Wistar rats
  total sleep time post-treatment: significantly increased total sleep time
  body temperature adverse effects: no evidence of causing disproportional locomotor inhibition or body temperature adverse effects
  disproportional locomotor inhibition: no evidence of causing disproportional locomotor inhibition or body temperature adverse effects

## O=C(O)CCCN1CCC(=C2c3ccccc3COc3ccccc32)CC1 [Compound 73a]
Male Wistar rats; 30 mg/kg PO at CT-18
  Average Bout-Length: 14.5 min
  Duration (hrs): 5-6+ hrs
  Maximum Bout Length: 27.6 min
  NREM Accum.: 47.3 min
  NREM Peak (%/hr): 62.2 %/hr
  Onset: 45 min

## CC(C)OC(=O)CCN1CCC(=C(c2ccccc2)c2ccccc2)CC1 [Compound 11d, Isopropyl 3-[4-(diphenylmethylidene)piperidin-1-yl]propanoate]
[1]
  IC50: 378 nM
Male Wistar rats; 30 mg/kg PO at CT-18
  Average Bout-Length: 11.0 min
  Duration: 6 h
  Maximum Bout Length: 20.1 min
  NREM Accum.: 55.5 min
  NREM Peak (%/hr): 58.5 %/hr
  Onset: 135 min

## CC(C)COC(=O)CCN1CCC(=C(c2ccccc2)c2ccccc2)CC1 [Compound 11e, Isobutyl 3-[4-(diphenylmethylidene)piperidin-1-yl]propanoate]
[1]
  IC50: 718 nM
Male Wistar rats; 30 mg/kg PO at CT-18
  Average Bout-Length: 8.3 min
  Duration: 6 h
  Maximum Bout Length: 19.1 min
  NREM Accum.: 49.6 min
  NREM Peak (%/hr): 59.6 %/hr
  Onset: 80 min

## CC(C)(CN1CCC(=C2c3ccccc3COc3ccccc32)CC1)C(=O)O [Compound 74a]
Male Wistar rats; 30 mg/kg PO at CT-18
  Average Bout-Length: 9.9 min
  Duration: 5 to 6 h
  Maximum Bout Length: 22.3 min
  NREM Accum.: 43.4 min
  NREM Peak (%/hr): 64.4 %/hr
  Onset: 70 to 80 min

## CC(C)(CCN1CCC(=C2c3ccccc3COc3ccccc32)CC1)C(=O)O [Compound 75a]
Male Wistar rats; 30 mg/kg PO at CT-18
  Average Bout-Length: 6.8 min
  Duration: 4 h
  Maximum Bout Length: 13.6 min
  NREM Accum.: 33.9 min
  NREM Peak (%/hr): 58.8 %/hr
  Onset: 70 to 85 min
Male Wistar rats; 45 mg/kg PO at CT-18
  Average Bout-Length: 10.8 min
  Duration: 5 h
  Maximum Bout Length: 19.4 min
  NREM Accum.: 33.9 min
  NREM Peak (%/hr): 58.2 %/hr
  Onset: 70 to 85 min

## CC(C)(CN1CCN(C2=Nc3cc(Cl)ccc3Nc3ccccc32)CC1)C(=O)O [Compound SS2]
[1]; [5]
  Ki: 23.4 nM
[2]; [7]
  Ki: > 10000 nM
[3]
  Ki: > 10000 nM
[4]; [8]
  Ki: > 10000 nM
Male Wistar rats; [6]
  sleep continuity, as assessed by sleep bout length: increased sleep continuity
Male Wistar rats
  total sleep time post-treatment: significantly increased total sleep time
  body temperature adverse effects: no evidence of causing disproportional locomotor inhibition or body temperature adverse effects
  disproportional locomotor inhibition: no evidence of causing disproportional locomotor inhibition or body temperature adverse effects

## O=C(CCN1CCC(=C(c2ccccc2)c2ccccc2)CC1)OC1CCCC1 [Compound 11f, Cyclopentyl 3-[4-(diphenylmethylidene)piperidin-1-yl]propanoate]
[1]
  IC50: 1070 nM
Male Wistar rats; 30 mg/kg IP versus Zolpidem 10 mg/kg
  cumulative effect on total sleep time (TST) during the initial 5 hours post-treatment, relative to baseline: induced more TST than Zolpidem
Male Wistar rats; [9]
  sleep continuity, as assessed by sleep bout length: increased sleep continuity
  time post-treatment over which total sleep time was increased: 3 h
  total sleep time: significantly increased total sleep time
Male Wistar rats; [10]
  REM sleep inhibition: did not, however, produce REM sleep inhibition or rebound insomnia
  rebound insomnia: did not, however, produce REM sleep inhibition or rebound insomnia

## O=C(O)CN1CCC(C(c2ccccc2)c2ccccc2)CC1 [Compound 16a, [4-(Diphenylmethyl)piperidin-1-yl]ethanoic acid]
[1]; Receptor Binding Data (Ki nM) H1, Table 7
  Ki: 43.9 nM
[2]; Table 7, human recombinant, read-out: Receptor Binding Data (Ki nM) M1
  Ki: > 10000 nM
[4]
  Ki: > 10000 nM
Male Wistar rats; 30 mg/kg PO at CT-18
  Average Bout-Length: 5.4 min
  Duration: 5 h
  Maximum Bout Length: 11.8 min
  NREM Accum.: 20.7 min
  NREM Peak (%/hr): 57.9 %/hr
  Onset: 180 min
